Assay results as given in patent US6583265B1, “Cyclosporins” (C-Chem AG, priority 1998, dated 2003).
≈ marks a conversion by molar mass, not a printed value. Where two headings read alike, the source gives them in different places. Numbered stars: 1 amine (or outer) side, 2 acyl side, 3 side chain; on linkers, the order of the positions; unused ones are H or OH. Square brackets hold non-standard residues; d marks the D form. Peptide text beside a SMILES is read from it. MeBmt = C/C=C/C[C@@H](C)[C@@H](O)[C@H](NC)C(=O)O; NMeLeu(4-OH) = CN[C@@H](CC(C)(C)O)C(=O)O; X2 = CN(C(Sc1ccccn1)C(=O)[*:2])[*:1]; NMeL = CN[C@@H](CC(C)C)C(=O)O; NMeV = CN[C@H](C(=O)O)C(C)C; Abu = CC[C@H](N)C(=O)O

Legend:
[1] = Antiinflammatory activity, adjuvent arthritis test (Pearson); type: in vivo; details: oral, solutions in olive oil and tween 80
Description: The antiinflammatory activity of test compounds was determined by the adjuvent arthritis test described by Pearson, “Arthr. Rheum”, 1959, Vol. 2., 440. Test compounds were administered orally as solutions in olive oil and tween 80.

HIV = type: cell-based
Description: The inhibitory effect of test compounds on the HIV-induced cytopathic effect on the MT4 T cell line as described by R. Pauwels in J. Virol. Methods, 1988, Vol. 20, pp 309-321 was used.

cyclophilin = cyclophilin (Homo sapiens, UniProt P62937); assay: Test for cyclophilin binding (Fliri); details: ratio to cyclosporin A
Chain of cyclophilin (P62937 whole entry): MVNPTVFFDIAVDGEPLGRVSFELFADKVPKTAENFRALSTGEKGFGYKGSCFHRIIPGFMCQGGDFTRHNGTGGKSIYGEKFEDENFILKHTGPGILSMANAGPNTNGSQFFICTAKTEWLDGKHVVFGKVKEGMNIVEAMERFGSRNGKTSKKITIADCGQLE
Description: To measure the affinity and inhibition of test compounds for cyclophilin, the test described by H. Fliri in “Antibiotics and Antiviral compounds”, 1993, Verlag Chemie, K.Krohn, H. A. Kirst, and H. Maag, eds., p 229-240 was used.

[2] = system: T. gondii tachyzoites, strain RH; type: cell-based, Toxoplasma gondii; details: 72 h
Description: Using microliter plates, T. gondii tachyzoites, strain RH were co-incubated with fibroblasts (MCR5, Bio-Merieux) for 72 hrs in the presence and absence of test compounds T. gondii was quantified using an ELISA. The activities of the test compounds are as follows: […]

Structure (SMILES)	ED50, dose effective in reducing the joint swelling by 50% [1] [mg/kg]	IC50 (HIV) [µg/mL]	Relative IC50, i.e. IC50 (cyclosporin A)/IC50 (test compound) (cyclophilin)	Activity against T. gondii (IC50) [2] [µg/mL]	IC50 (HIV; HIV-induced cytopathic effect on MT4 T cell line) [µg/mL]
C/C=C/C[C@@H](C)[C@@H](O)[C@H]1C(=O)N[C@@H](C(C)C)C(=O)N(C)C(Sc2ccccn2)C(=O)N(C)[C@@H](CC(C)C)C(=O)N[C@@H](C(C)C)C(=O)N(C)[C@@H](CC(C)C)C(=O)N[C@@H](C)C(=O)N[C@H](C)C(=O)N(C)[C@@H](CC(C)C)C(=O)N(C)[C@@H](CC(C)C)C(=O)N(C)[C@@H](C(C)C)C(=O)N1C (stereo partly drawn) [Example 6, 3-(Pyridyl-2-thio)-2-valine-cyclosporin] (HELM PEPTIDE1{[C/C=C/C[C@@H](C)[C@@H](O)[C@@H](C(=O)[*:2])N(C)[*:1]].V.[CN(C(Sc1ccccn1)C(=O)[*:2])[*:1]].[meL].V.[meL].A.[dA].[meL].[meL].[meV]}$PEPTIDE1,PEPTIDE1,1:R1-11:R2$$$V2.0)	25	1 (≈ 0.754 µM)	0.2		
C/C=C/C[C@@H](C)[C@@H](O)[C@H]1C(=O)N[C@@H](CC)C(=O)N(C)C(Sc2ccccn2)C(=O)N(C)[C@@H](CC(C)(C)O)C(=O)N[C@@H](C(C)C)C(=O)N(C)[C@@H](CC(C)C)C(=O)N[C@@H](C)C(=O)N[C@H](C)C(=O)N(C)[C@@H](CC(C)C)C(=O)N(C)[C@@H](CC(C)C)C(=O)N(C)[C@@H](C(C)C)C(=O)N1C (stereo partly drawn) [Example 3, 3-(Pyridyl-2-thio)-4-(γ-hydroxy-methylleucine)-cyclosporin] (cyclo([MeBmt][Abu][X2][NMeLeu(4-OH)]V[NMeL]A[dA][NMeL][NMeL][NMeV]))	25	1 (≈ 0.753 µM)	0.2		
C/C=C/C[C@@H](C)[C@@H](O)[C@H]1C(=O)N[C@@H](CC)C(=O)N(C)C(OC(C)=O)C(=O)N(C)[C@@H](CC(C)C)C(=O)N[C@@H](C(C)C)C(=O)N(C)[C@@H](CC(C)C)C(=O)N[C@@H](C)C(=O)N[C@H](C)C(=O)N(C)[C@@H](CC(C)C)C(=O)N(C)[C@@H](CC(C)C)C(=O)N(C)[C@@H](C(C)C)C(=O)N1C (stereo partly drawn) [Example 13, 3-Acetoxy-cyclosporin]		0.15 (≈ 0.119 µM)		1	
C/C=C/C[C@@H](C)[C@@H](O)[C@H]1C(=O)N[C@@H](CC)C(=O)N(C)C(Sc2ccccc2)C(=O)N(C)[C@@H](CC(C)C)C(=O)N[C@@H](C(C)C)C(=O)N(C)[C@@H](CC(C)C)C(=O)N[C@@H](C)C(=O)N[C@H](C)C(=O)N(C)[C@@H](CC(C)C)C(=O)N(C)[C@@H](CC(C)C)C(=O)N(C)[C@@H](C(C)C)C(=O)N1C (stereo partly drawn) [Example 8, 3-(Phenylthio)-cyclosporin A] (HELM PEPTIDE1{[C/C=C/C[C@@H](C)[C@@H](O)[C@@H](C(=O)[*:2])N(C)[*:1]].[Abu].[CN(C(Sc1ccccc1)C(=O)[*:2])[*:1]].[meL].V.[meL].A.[dA].[meL].[meL].[meV]}$PEPTIDE1,PEPTIDE1,1:R1-11:R2$$$V2.0)	25	0.5 (≈ 0.381 µM)	0.4		
C/C=C/C[C@@H](C)[C@@H](O)[C@H]1C(=O)N[C@@H](CC)C(=O)N(C)C(Sc2ccccn2)C(=O)N(C)[C@@H](CC(C)C)C(=O)N[C@@H](C(C)C)C(=O)N(C)[C@@H](CC(C)C)C(=O)N[C@@H](C)C(=O)N[C@H](C)C(=O)N(C)[C@@H](CC(C)C)C(=O)N(C)[C@@H](CC(C)C)C(=O)N(C)[C@@H](C(C)C)C(=O)N1C (stereo partly drawn) [Example 1, 3-(Pyridyl-2-thio)-cyclosporin] (HELM PEPTIDE1{[C/C=C/C[C@@H](C)[C@@H](O)[C@@H](C(=O)[*:2])N(C)[*:1]].[Abu].[CN(C(Sc1ccccn1)C(=O)[*:2])[*:1]].[meL].V.[meL].A.[dA].[meL].[meL].[meV]}$PEPTIDE1,PEPTIDE1,1:R1-11:R2$$$V2.0)	25	0.45 (≈ 0.343 µM)	0.2		
C/C=C/C[C@@H](C)[C@@H](O)[C@H]1C(=O)N[C@@H](CCC)C(=O)N(C)C(Sc2ccccn2)C(=O)N(C)[C@@H](CC(C)C)C(=O)N[C@@H](C(C)C)C(=O)N(C)[C@@H](CC(C)C)C(=O)N[C@@H](C)C(=O)N[C@H](C)C(=O)N(C)[C@@H](CC(C)C)C(=O)N(C)[C@@H](CC(C)C)C(=O)N(C)[C@@H](C(C)C)C(=O)N1C (stereo partly drawn) [Example 5, 3-(Pyridyl-2-thio)-2-norvaline-cyclosporin] (HELM PEPTIDE1{[C/C=C/C[C@@H](C)[C@@H](O)[C@@H](C(=O)[*:2])N(C)[*:1]].[Nva].[CN(C(Sc1ccccn1)C(=O)[*:2])[*:1]].[meL].V.[meL].A.[dA].[meL].[meL].[meV]}$PEPTIDE1,PEPTIDE1,1:R1-11:R2$$$V2.0)	25	1 (≈ 0.754 µM)	0.2		
C/C=C/C[C@@H](C)[C@@H](O)[C@H]1C(=O)N[C@@H](CC)C(=O)N(C)C(Sc2ccncc2)C(=O)N(C)[C@@H](CC(C)C)C(=O)N[C@@H](C(C)C)C(=O)N(C)[C@@H](CC(C)C)C(=O)N[C@@H](C)C(=O)N[C@H](C)C(=O)N(C)[C@@H](CC(C)C)C(=O)N(C)[C@@H](CC(C)C)C(=O)N(C)[C@@H](C(C)C)C(=O)N1C (stereo partly drawn) [Example 2, 3-(Pyridyl-4-thio)-cyclosporin A] (HELM PEPTIDE1{[C/C=C/C[C@@H](C)[C@@H](O)[C@@H](C(=O)[*:2])N(C)[*:1]].[Abu].[CN(C(Sc1ccncc1)C(=O)[*:2])[*:1]].[meL].V.[meL].A.[dA].[meL].[meL].[meV]}$PEPTIDE1,PEPTIDE1,1:R1-11:R2$$$V2.0)	25	1 (≈ 0.762 µM)	0.2		
C/C=C/C[C@@H](C)[C@@H](OC(C)=O)[C@H]1C(=O)N[C@@H](CC)C(=O)N(C)C(OC(C)=O)C(=O)N(C)[C@@H](CC(C)C)C(=O)N[C@@H](C(C)C)C(=O)N(C)[C@@H](CC(C)C)C(=O)N[C@@H](C)C(=O)N[C@H](C)C(=O)N(C)[C@@H](CC(C)C)C(=O)N(C)[C@@H](CC(C)C)C(=O)N(C)[C@@H](C(C)C)C(=O)N1C (stereo partly drawn) [Example 12, 3′,3-Diacetoxy-cyclosporin]	15	0.15 (≈ 0.115 µM)	1.5		
C/C=C/C[C@@H](C)[C@@H](O)[C@H]1C(=O)N[C@@H](CC)C(=O)N(C)C(Sc2ccccn2)C(=O)N(C)[C@@H](CC(C)C)C(=O)N[C@@H](C(C)C)C(=O)N(C)[C@@H](CC(C)C)C(=O)N[C@@H](C)C(=O)N[C@H](CO)C(=O)N(C)[C@@H](CC(C)C)C(=O)N(C)[C@@H](CC(C)C)C(=O)N(C)[C@@H](C(C)C)C(=O)N1C (stereo partly drawn) [Example 7, 3-(Pyridyl-2-thio)-8-(D)-serine-cyclosporin] (HELM PEPTIDE1{[C/C=C/C[C@@H](C)[C@@H](O)[C@@H](C(=O)[*:2])N(C)[*:1]].[Abu].[CN(C(Sc1ccccn1)C(=O)[*:2])[*:1]].[meL].V.[meL].A.[dS].[meL].[meL].[meV]}$PEPTIDE1,PEPTIDE1,1:R1-11:R2$$$V2.0)	25	1 (≈ 0.753 µM)	0.2		
C/C=C/C[C@@H](C)[C@@H](O)[C@H]1C(=O)N[C@@H](CC)C(=O)N(C)C(SCCN(C)C)C(=O)N(C)[C@@H](CC(C)C)C(=O)N[C@@H](C(C)C)C(=O)N(C)[C@@H](CC(C)C)C(=O)N[C@@H](C)C(=O)N[C@H](C)C(=O)N(C)[C@@H](CC(C)C)C(=O)N(C)[C@@H](CC(C)C)C(=O)N(C)[C@@H](C(C)C)C(=O)N1C (stereo partly drawn) [Example 9, 3-(2-dimethylaminoethylthio)-cyclosporin]				0.1	0.03 (≈ 0.023 µM)
C/C=C/C[C@@H](C)[C@@H](O)[C@H]1C(=O)N[C@@H](CC)C(=O)N(C)C(Sc2ccccn2)C(=O)N(C)[C@@H](C(C)C)C(=O)N[C@@H](C(C)C)C(=O)N(C)[C@@H](CC(C)C)C(=O)N[C@@H](C)C(=O)N[C@H](C)C(=O)N(C)[C@@H](CC(C)C)C(=O)N(C)[C@@H](CC(C)C)C(=O)N(C)[C@@H](C(C)C)C(=O)N1C (stereo partly drawn) [Example 4, 3-(Pyridyl-2-thio)-4-methylvaline-cyclosporin] (HELM PEPTIDE1{[C/C=C/C[C@@H](C)[C@@H](O)[C@@H](C(=O)[*:2])N(C)[*:1]].[Abu].[CN(C(Sc1ccccn1)C(=O)[*:2])[*:1]].[meV].V.[meL].A.[dA].[meL].[meL].[meV]}$PEPTIDE1,PEPTIDE1,1:R1-11:R2$$$V2.0)	25	1 (≈ 0.771 µM)	0.2		
C/C=C/C[C@@H](C)[C@@H](O)[C@H]1C(=O)N[C@@H](CC)C(=O)N(C)C(OC)C(=O)N(C)[C@@H](CC(C)C)C(=O)N[C@@H](C(C)C)C(=O)N(C)[C@@H](CC(C)C)C(=O)N[C@@H](C)C(=O)N[C@H](C)C(=O)N(C)[C@@H](CC(C)C)C(=O)N(C)[C@@H](CC(C)C)C(=O)N(C)[C@@H](C(C)C)C(=O)N1C (stereo partly drawn) [Example 14, 3-Methoxycyclosporin]	10			0.6	
